SMILES strings stand for the structures.

The data set can be described thus: Waters ACQUITY UPLC BEH C18, 100 × 2.1 mm, 1.7 µm, 40 °C, 0.3 to 0.4 mL/min, estimated dead time 0.63 min; A: water + 0.1% formic acid; B: methanol + 0.1% formic acid; gradient (min/%B) 0/0.5 0.1/0.5 10/80 10.1/99.5 12/99.5. The settings on record: stereoisomer not certain.
As to `CC(CCC1(O)OC2CC3C4CC=C5CC(O)CC(OC6OCC(O)C(O)C6OC6OC(C)C(O)C(O)C6O)C5(C)C4CCC3(C)C2C1C)COC1OC(CO)C(O)C(O)C1O` (centres undefined), the LC retention time was 4.48 min. In the case of `COc1ccc(-c2oc3cc(O)cc(O)c3c(=O)c2O)cc1`, the LC retention time is 5.99 min.

Consider `O=C(C=Cc1ccc(O)cc1)OCC1OC(OC2C(c3c(O)cc4oc(-c5ccc(O)c(O)c5)cc(=O)c4c3O)OC(CO)C(O)C2O)C(O)C(O)C1O` (centres undefined), for which the LC retention time was 3.81 min. Consider `O=C1c2c(O)cc(O)cc2OC(c2ccc(O)cc2)C1O` (centres undefined), for which the LC retention time is 4.8 min.

With `CCC(C)C(NC(=O)C(N)Cc1ccccc1)C(=O)O` (centres undefined), the LC retention time was 3.79 min. For the compound `COc1cc(C=CNC(=O)C=Cc2ccc(O)c(OC)c2)ccc1O`, the LC retention time was 4.38 min. `COc1cc2c(cc1OC)C1C(C)c3ccc(OC)c(OC)c3CN1CC2` (centres undefined): the LC retention time was 4.86 min. The result for `O=C(O)C1OC(Oc2ccc(-c3oc4cc(O)c(C5OC(CO)C(O)C(O)C5O)c(O)c4c(=O)c3C3OC(CO)C(O)C(O)C3O)cc2)C(O)C(O)C1O` (centres undefined) reads 4.68 min; that for `O=C(O)CC(=O)OCC1OC(Oc2cc(O)c3c(=O)cc(-c4ccc(O)cc4)oc3c2)C(O)C(O)C1O` (centres undefined), 5.16 min; that for `CC1(C)CCC2(C(=O)OC3OC(CO)C(O)C(O)C3O)C(O)CC3(C)C(=CCC4C5(C)CCC(OC6OCC(O)C(OC7OC(CO)C(O)C(O)C7O)C6O)C(C)(C)C5CCC43C)C2C1` (centres undefined), 6.06 min.

For the compound `C=CC1C(OC2OC(CO)C(O)C(O)C2O)OC=C2C(=O)OCCC21O` (centres undefined), the LC retention time is 3.2 min.

With `O=c1[nH]c(=O)c2[nH]cnc2[nH]1`, the LC retention time is 1.75 min. As to `CC(C)=CCCC(C)(OC1OC(CO)C(O)C(O)C1O)C1CCC2(C)C1C(O)CC1C3(C)CCC(O)C(C)(C)C3C(O)CC12C` (centres undefined), the LC retention time was 6.59 min. For the compound `CC1(C)C=CC2(C)CCC3(C)C(=CCC4C5(C)CCC(O)C(C)(CO)C5CCC43C)C2C1` (centres undefined), the LC retention time is 10.4 min. With `O=C1CC(c2ccc(O)c(O)c2)Oc2c1ccc(OC1OC(CO)C(O)C(O)C1O)c2O` (centres undefined), the LC retention time is 3.47 min. For the compound `CC1(C(=O)O)CCC2(C)CCC3(C)C(=CCC4C5(C)CCC(OC6OC(C(=O)O)C(O)C(O)C6OC6OC(C(=O)O)C(O)C(O)C6O)C(C)(C)C5CCC43C)C2C1` (centres undefined), the LC retention time was 6.45 min. `CC1OC(OCC2OC(Oc3c(-c4ccc(O)c(O)c4)oc4cc(OC5OC(CO)C(O)C(O)C5O)cc(O)c4c3=O)C(O)C(O)C2O)C(O)C(O)C1O` (centres undefined): the LC retention time was 3.39 min. The result for `COc1ccc2c3c([nH]c2c1)C1CC2C(CC(O)C(OC)C2C(=O)O)CN1CC3` (centres undefined) reads 3.89 min; that for `CCCCCC=CCC=CCC=CCCCCC(=O)OCC(O)COP(=O)([O-])OCC[N+](C)(C)C` (centres undefined), 8.85 min. To `COc1cc(-c2cc(=O)c3c(O)cc(OC4OC(CO)C(O)C(O)C4OC4OC(C)C(O)C(O)C4O)cc3o2)cc(OC)c1O` (centres undefined) belongs 4.36 min; to `Oc1ccc(C2Oc3cc(O)cc(O)c3CC2O)cc1` (centres undefined), 4.91 min; to `COc1ccc(-c2coc3cc(OC4OC(COC(=O)CC(=O)O)C(O)C(O)C4O)cc(O)c3c2=O)cc1` (centres undefined), 6.06 min. The result for `COc1cc2c3cc1Oc1c(OC)c(OC)cc4c1C(Cc1ccc(cc1)Oc1cc(ccc1O)CC3N(C)CC2)N(C)CC4` (centres undefined) reads 3.76 min. With `C[n+]1cc2c3c(ccc2c2ccc4cc5c(cc4c21)OCO5)OCO3`, the LC retention time was 4.85 min. As to `O=C(C=Cc1ccc(O)c(O)c1)OC1C(O)CC(O)(C(=O)O)CC1O` (centres undefined), the LC retention time is 4.6 min.

For the compound `NC(CCC(=O)NC(CS)C(=O)NCC(=O)O)C(=O)O` (centres undefined), the LC retention time was 1.52 min. To `COc1cc2cc3c4cc(OC)c(OC)cc4cc[n+]3c(C)c2cc1OC` belongs 5.27 min. As for `CCN1CC2(C)CCC(O)C34C5CC6C(OC)CC(O)(C(CC23)C14)C5C6O` (centres undefined), the LC retention time was 2.89 min. For `CC(C)CC(N)C(=O)NCC(=O)O` (centres undefined), the LC retention time is 2.08 min. The result for `CC1CCC2C(C)C3C(CC4C5CC=C6CC(OC7OC(CO)C(O)C(OC8OC(CO)C(O)C(O)C8O)C7O)CCC6(C)C5CCC43C)N2C1` (centres undefined) reads 4.65 min; that for `COC(=O)C1C(O)CCC2CN3CCc4c([nH]c5ccccc45)C3CC21` (centres undefined), 4.35 min. To `COc1cc(-c2cc(=O)c3c(O)cc(OC4OC(C(=O)O)C(O)C(O)C4O)cc3o2)cc(OC)c1OC1OC(CO)C(O)C(O)C1O` (centres undefined) belongs 4.05 min; to `O=c1cc(-c2ccc(O)cc2)oc2cc(OC3OC(CO)C(O)C(O)C3O)cc(O)c12` (centres undefined), 4.18 min.

As for `COc1cc(C=CC(=O)OC2C(OC3COC(c4c(O)cc5oc(-c6ccc(O)cc6)cc(=O)c5c4O)C(O)C3O)OC(CO)C(O)C2O)ccc1O` (centres undefined), the LC retention time was 4.71 min.

`CCC=CCC1C(=O)C=CC1CCCCCCCC(=O)O` (centres undefined): the LC retention time is 9.37 min.

As to `CCN1CC2(OC(=O)c3ccccc3N)CCC(OC)C34C1C(CC23)C1(O)CC(OC)C2CC4C1(O)C2OC` (centres undefined), the LC retention time is 4.95 min. On to `NC(Cc1ccccc1)C(=O)O` (centres undefined), for which the LC retention time was 2.3 min. Turning to `CCC(C)C(N)C(=O)NC(C(=O)O)C(C)CC` (centres undefined), the LC retention time was 3.05 min. The result for `CC1OC(OC2C(CO)OC(OCC3OC(OC(=O)C45CCC(C)(C)CC4C4=CCC6C7(C)CCC(OC8OCC(O)C(O)C8OC8OC(C)C(O)C(O)C8O)C(C)(CO)C7CCC6(C)C4(C)CC5)C(O)C(O)C3O)C(O)C2O)C(O)C(O)C1O` (centres undefined) reads 5.38 min. As to `O=C(O)C(Cc1ccc(O)cc1)NCC1(O)OC(CO)C(O)C1O` (centres undefined), the LC retention time is 1.82 min. On to `CCCCc1ccc(C(=O)O)nc1`, for which the LC retention time is 2.79 min. With `COC(=O)C=Cc1ccccc1`, the LC retention time is 2.87 min. As to `COc1cc(CC2C(=O)OCC2Cc2ccc(OC)c(OC)c2)ccc1O` (centres undefined), the LC retention time was 6.63 min.

`CC1CCC2C(C)C3C(CC4C5CC=C6CC(OC7OC(CO)C(O)C(OC8OC(CO)C(O)C(O)C8O)C7OC7OC(C)C(O)C(O)C7O)CCC6(C)C5CCC43C)N2C1` (centres undefined): the LC retention time is 4.95 min. `COc1cc2c(=O)c(-c3ccc(O)cc3)coc2cc1O`: the LC retention time is 5.3 min. In the case of `CC(C)=CCCC(C)(OC1OC(COC2OC(CO)C(O)C(O)C2O)C(O)C(O)C1O)C1CCC2(C)C1C(O)CC1C3(C)CCC(OC4OC(CO)C(O)C(O)C4OC4OC(CO)C(O)C(O)C4O)C(C)(C)C3CCC12C` (centres undefined), the LC retention time is 5.88 min. The result for `O=C(Cc1c[nH]c2ccccc12)NC(Cc1c[nH]c2ccccc12)C(=O)O` (centres undefined) reads 6.19 min; that for `CCOC(=O)Oc1c(OC)cc(C(=O)OC2CC3CN4CCc5c([nH]c6cc(OC)ccc56)C4CC3C(C(=O)OC)C2OC)cc1OC` (centres undefined), 6.72 min.

For the compound `CC=CS(=O)CC(NC(=O)CCC(N)C(=O)O)C(=O)O` (centres undefined), the LC retention time is 1.79 min. To `O=c1cc(-c2ccc(O)c(O)c2)oc2c(C3OC(CO)C(O)C(O)C3O)c(O)c(C3OC(CO)C(O)C(O)C3O)c(O)c12` (centres undefined) belongs 3.1 min; to `O=c1c(OC2OCC(O)C(O)C2O)c(-c2ccc(O)c(O)c2)oc2cc(O)cc(O)c12` (centres undefined), 4.17 min; to `CC(=O)OC1CC(COC2OC(CO)C(O)C(O)C2OC2OC(CO)C(O)C(O)C2O)CNC12OC1CC3C4CCC5CC(OC6OC(CO)C(OC7OC(CO)C(OC8OCC(O)C(O)C8O)C(O)C7OC7OC(CO)C(O)C(O)C7O)C(O)C6O)CCC5(C)C4CCC3(C)C1C2C` (centres undefined), 3.84 min. For the compound `O=c1cc(-c2ccccc2)oc2cc(O)c(O)c(O)c12`, the LC retention time is 6.4 min. The result for `CC(=O)OC1CCC2(C)C(=CCC3C2CCC2(C)C3CC3OC4(CCC(C)CN4)C(C)C32)C1` (centres undefined) reads 8.16 min; that for `COc1c2c(cc3c(-c4ccc5c(c4)OCO5)c4c(cc13)C(=O)OC4)OCO2`, 8.93 min. For the compound `NC(CCC(=O)NC(Cc1ccccc1)C(=O)O)C(=O)O` (centres undefined), the LC retention time was 3.04 min. For the compound `O=C(O)CCCC(=O)O`, the LC retention time is 2.53 min. As for `COc1cc(CC2COC(c3ccc(O)c(OC)c3)C2CO)ccc1O` (centres undefined), the LC retention time is 4.96 min. Turning to `CS(=O)CCCCCCCC(N)C(=O)O` (centres undefined), the LC retention time was 2.28 min. `CC1OC(OC2CCC3(C)C(CCC4(C)C3C=CC3=C5CC(C)(C)CCC5(CO)C(O)CC34C)C2(C)CO)C(O)C(OC2OC(CO)C(O)C(O)C2O)C1O` (centres undefined): the LC retention time is 7.11 min. As to `CC(C)=CCCC(C)(O)C1CCC2(C)C1C(O)CC1C3(C)CCC(O)C(C)(C)C3C(OC3OC(CO)C(O)C(O)C3OC3OC(CO)C(O)C(O)C3O)CC12C` (centres undefined), the LC retention time is 5.94 min. For `CC1OC(Oc2c(-c3ccc(O)c(O)c3)oc3cc(O)cc(O)c3c2=O)C(OC2OC(CO)C(O)C(O)C2O)C(O)C1O` (centres undefined), the LC retention time is 4.15 min. Regarding `CCC=CCC=CC=CC(O)CCCCCCCC(=O)O` (centres undefined), the LC retention time was 9.1 min. Regarding `O=c1c(O)c(-c2ccc(O)c(O)c2)oc2cc(OC3OC(CO)C(O)C(O)C3O)c(O)c(O)c12` (centres undefined), the LC retention time was 3.72 min.

In the case of `CC1(C(=O)O)CCC2(C)CCC3(C)C(=CCC4C5(C)CCC(OC6OC(C(=O)O)C(O)C(O)C6OC6OC(C(=O)O)C(O)C(O)C6O)C(C)(CO)C5CCC43C)C2C1` (centres undefined), the LC retention time is 6.15 min. To `CCC(C)C(NCC1(O)OCC(O)C(O)C1O)C(=O)NC(CCC(=O)O)C(=O)O` (centres undefined) belongs 2.07 min; to `O=c1cc2oc(-c3ccc([O-])c(O)c3)c(OC3OC(CO)C(O)C(O)C3OC3OCC(O)C(O)C3O)cc-2c(O)c1` (centres undefined), 2.88 min. The result for `CC(C)C(=O)OC(CC(=O)[O-])C[N+](C)(C)C` (centres undefined) reads 2.48 min. As for `COc1cc(-c2[o+]c3cc(O)cc(OC4OC(CO)C(O)C(O)C4O)c3cc2OC2OC(CO)C(O)C(O)C2O)cc(OC)c1O` (centres undefined), the LC retention time was 2.81 min.

The values above are taken from the RepoRT retention time repository.
